For this experiment, the target named is T1, Jak1 (Homo sapiens, UniProt P23458).
T1 construct: endogenous in cells; host or cells: TF1 cells
The experiment can be described thus: Jak1 (PSTAT3 TF1) alpha screen assay: inhibition of IL-6 induced phosphorylation of STAT3 in TF1 cells. Type of experiment: cell-based. Conditions: for EC50: IL-6 induced pSTAT3, TF1 cells; for Tyk2 selectivity over Jak1: calculated from tabulated EC50 data (Jak1 / Tyk2). A digest of the protocol: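 IL-6-starved TF1 cells were preincubated 30 min at 37 °C with compound (top final 25 μM, 8-point 1:5 series), then stimulated with IL-6 (100 ng/mL final) for 30 min at 37 °C. Lysates were read for pSTAT3 (Tyr705) by AlphaScreen SureFire. EC50 from percent-activity dose-response curves.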

T1 sequence (P23458 whole entry): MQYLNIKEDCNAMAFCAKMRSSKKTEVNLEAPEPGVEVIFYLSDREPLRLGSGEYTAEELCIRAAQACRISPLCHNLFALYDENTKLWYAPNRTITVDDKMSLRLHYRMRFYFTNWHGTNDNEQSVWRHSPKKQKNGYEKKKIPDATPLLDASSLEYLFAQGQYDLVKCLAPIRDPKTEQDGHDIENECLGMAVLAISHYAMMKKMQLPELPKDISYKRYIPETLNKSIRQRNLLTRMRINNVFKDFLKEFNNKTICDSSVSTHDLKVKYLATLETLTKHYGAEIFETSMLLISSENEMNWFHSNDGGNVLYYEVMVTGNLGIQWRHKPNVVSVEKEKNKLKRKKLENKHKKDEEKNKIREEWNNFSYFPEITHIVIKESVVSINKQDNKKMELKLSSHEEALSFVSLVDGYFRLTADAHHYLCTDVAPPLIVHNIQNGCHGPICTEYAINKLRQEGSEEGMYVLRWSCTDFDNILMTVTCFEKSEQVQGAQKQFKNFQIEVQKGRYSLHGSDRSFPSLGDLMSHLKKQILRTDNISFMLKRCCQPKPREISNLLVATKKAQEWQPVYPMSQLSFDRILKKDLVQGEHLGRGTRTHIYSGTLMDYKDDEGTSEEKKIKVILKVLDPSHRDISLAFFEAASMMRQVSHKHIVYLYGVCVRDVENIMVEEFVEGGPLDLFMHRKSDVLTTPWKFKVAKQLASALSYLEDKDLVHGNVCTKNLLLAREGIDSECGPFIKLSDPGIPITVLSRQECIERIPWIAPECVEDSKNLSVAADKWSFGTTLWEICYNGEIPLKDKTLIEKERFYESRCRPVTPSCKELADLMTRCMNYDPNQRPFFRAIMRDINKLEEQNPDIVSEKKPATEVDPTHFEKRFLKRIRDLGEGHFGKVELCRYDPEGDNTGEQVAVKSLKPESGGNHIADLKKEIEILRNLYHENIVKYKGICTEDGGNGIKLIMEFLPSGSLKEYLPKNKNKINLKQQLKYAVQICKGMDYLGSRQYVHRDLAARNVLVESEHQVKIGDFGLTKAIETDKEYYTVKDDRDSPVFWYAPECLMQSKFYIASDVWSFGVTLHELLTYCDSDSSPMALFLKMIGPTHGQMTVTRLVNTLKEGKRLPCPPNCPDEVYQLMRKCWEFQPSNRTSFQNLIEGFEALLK

As for `COCc1cc(-c2cn(C)c3cnc(NC(C)=O)cc23)nc([C@]2([C@H](C)O)CCOC2)c1` [Example 22.3, N-(3-(6-((R)-3-((S)-1-hydroxyethyl)tetrahydrofuran-3-yl)-4-(methoxymethyl)pyridin-2-yl)-1-methyl-1H-pyrrolo[2,3-c]pyridin-5-yl)acetamide], the response was half-maximal at 12.9 µM (EC50) and the “Tyk2 selectivity over Jak1” value is given as 88-fold.
With `COCc1cc(-c2cn(C)c3cnc(NC(C)=O)cc23)nc([C@]2([C@@H](C)O)CCOC2)c1` [Example 22.4, N-(3-(6-((R)-3-((R)-1-hydroxyethyl)tetrahydrofuran-3-yl)-4-(methoxymethyl)pyridin-2-yl)-1-methyl-1H-pyrrolo[2,3-c]pyridin-5-yl)acetamide], the EC50 is 27.2 µM and the “Tyk2 selectivity over Jak1” value is listed as 243-fold.

Source of the values: patent US10508113B2, “Inhibitors of tyrosine kinase 2 mediated signaling” (AbbVie Inc., priority 2018, dated 2019).
